Data as given in patent US6737407B1, “Treatment of obesity” (Metabolic Pharmaceuticals, Ltd., priority 1997, dated 2004).
Where no end group is shown, it is not given here.

Assays:
hormone-sensitive lipase = test: Hormone-sensitive lipase (HSL) assay in isolated adipocytes; format: cell-based, rat
Experimental: The enzyme was expressed as U/mg protein, where the release of 1 nmole of oleic acid per hour was considered as 1 Unit of enzyme activity.
Hormone-sensitive lipase (HSL) activity of isolated adipocytes was used as a model to evaluate the lipolytic effect of hGH 177-191 peptide and analogues. In this assay [C^14]-triolein was used as a substrate by HSL. The amount of hydrolyzed [C^14]-oleic acid was determined and used as an index of HSL activity.
The adipocytes were prepared from the epididymal fat pads of male Zucker fatty (fa/fa) rats by collagenase digestion. Fat pads (5 g) were finely-cut into small (2-3 mm) pieces and placed in a siliconised glass vial containing 10 ml digestion medium. […] The isolated adipocytes were resuspended with 10 ml collagen-free buffer and the concentration of adipocytes was estimated by counting an aliquot of a pre-determined volume of cells on a microscope slide. […]
The HSL activity was measured at 37° C. for 1 hour in a final volume of 200 μl, containing 10 μmoles phosphate buffer (pH 7.0). […] The [C^14]-radioactivity was measured by a liquid scintillation counter. […] The HSL activity was expressed as U/mg protein, where the release of 1 nmole of oleic acid per hour was defined as 1 U of enzyme activity.

[1] = system: adipose tissues from male Zucker fatty (fa/fa) rats; test: In vitro glycerol release during lipolysis in isolated adipose tissue; format: cell-based, rat; conditions: adipose tissues isolated from obese animals
Experimental: Adipose tissues were removed from animals and sliced into segments of approximately 200 mg each. Then the tissues were pre-incubated in 25 ml vials containing 2 ml of Krebs-Ringerbicarbonate (KRB) buffer, 4% defatted BSA and 5.5 mM glucose under an atmosphere of carbogen (95%O2/ 5%CO2) at 37° C. for 1 hour. Tissues were then transferred to another vials with fresh medium and the incubation was initiated by adding hGH 177-191 peptide or analogues into the vials. The mixtures were then incubated at 37° C. for 90 minutes. After incubation, the tissues wee removed and aliquots (200 μl) of samples withdrawn from the medium were assayed for the contents of glycerol or free fatty acid (FFA) either by the enzyme assay (glycerol kinase) or calorimetric (copper-dye) spectrometry. The NADH or color produced was then monitored by the absorption at 340 nm and 610 nm, respectively.

[2] = system: adipose tissues of the C57BL/6J (ob/ob) mice; test: Ex vivo lipogenesis in adipose tissues of treated ob/ob mice ([C14]-glucose incorporated into lipid); parameters: species or system mouse
Excerpt: FIGS. 5A & 5B depict the ex vivo effect on lipogenesis in adipose tissues of the C57BL/6J (ob/ob) male mice (5A) and female mice (5B) after 18-day treatment with hGH 177-191. […] The differences between the hGH 177-191 treated and saline control groups were statistically significant.
The procedure for the isolation and measurement of intact epididymal fat pads was established in previous studies of epididymal growth of GH-deficient (lit/lit) mice. In the present study, white adipose tissues, either whole epididymal or parametrical fat pads, were excised with the identical techniques as previously described^22 from the mice immediately after sacrifice. The tissues were washed in cold physiological saline, blotted and weighed. For ex vivo lipogenic assays, the portions of adipose tissues without blood vessels were used.
The rate of the incorporation of exogenous [C^14]-glucose into total lipid in adipose tissue was measured as the index of anti-lipogenic activity of hGH 177-191.
Adipose tissues were sliced into segments of approximately 200 mg each and then placed in Krebs-Ringer bicarbonate (KRB) buffer (pH 7.4) containing 2% defatted BSA, and glucose (0.1 mg/ml) and gassed with 95% O2-5% CO2 at 37° C. […] The [C^14] radioactivity was measured with a liquid scintillation counter. The rates of total lipid synthesis were expressed as μmol [C^14]-glucose incorporated into lipid/g tissue/hr.

Q: For “LRIVQCRSVEGSCGF (cysteine pairing not given here) [Ref No. 9401]”, which “effect on hormone-sensitive lipase (in words)” value (hormone-sensitive lipase) is on record?
A: effective in stimulating

Q: And the “release of glycerol (in words)” value [1]?
A: enhanced

Q: And the “tissue lipogenic activity ([C14]-glucose incorporated into lipid)” value ([2]; female ob/ob mice after 18-day treatment)?
A: 2.99±0.21 pmol/mg tissue/min

Q: And the “tissue lipogenic activity ([C14]-glucose incorporated into lipid)” value ([2]; male ob/ob mice after 18-day treatment)?
A: 2.33±0.21 pmol/mg tissue/min
